For this assay, the system named is MV-4-11 cells. Nature of the assay: Gene expression microarray analysis (Affymetrix PrimeView) and GSEA. It is filed as cell-based, human. Details: RFU PODN (11730768_x_at) / Fold change /veh PODN (11730768_x_at) / RFU LINC00158 (11744669_a_at) / Fold change /veh LINC00158 (11744669_a_at) / RFU DUSP10 (11751237_a_at) / Fold change /veh DUSP10 (11751237_a_at) / RFU ID3 (11757404_x_at) / Fold change /veh ID3 (11757404_x_at) / RFU PLEKHG5 (11737974_s_at) / Fold change /veh PLEKHG5 (11737974_s_at) / RFU LRRC4B (11730491_at) / Fold change /veh LRRC4B (11730491_at) / RFU GIMAP4 (11747438_a_at) / Fold change /veh GIMAP4 (11747438_a_at) / RFU KRT8 (11758183_x_at) / Fold change /veh KRT8 (11758183_x_at) / RFU CNN1 (11734310_a_at) / Fold change /veh CNN1 (11734310_a_at) / RFU VPS37D (11726825_at) / Fold change /veh VPS37D (11726825_at) / RFU C10orf10 (11716522_x_at) / Fold change /veh C10orf10 (11716522_x_at) / RFU KIR2DL2 /// KIR2DL4 /// KIR2DL5A /// KIR2DL5B /// KIR2DS1 /// KIR2DS2 /// KIR2DS3 /// KIR2DS4 /// KIR3DL3 /// KIR3DL3 /// KIR3DS1 (11738374_at) / Fold change /veh KIR2DL2 /// KIR2DL4 /// KIR2DL5A /// KIR2DL5B /// KIR2DS1 /// KIR2DS2 /// KIR2DS3 /// KIR2DS4 /// KIR3DL3 /// KIR3DL3 /// KIR3DS1 (11738374_at) / RFU C1QL1 (11718748_at) / Fold change /veh C1QL1 (11718748_at) / RFU TMPRSS4 (11747572_a_at) / Fold change /veh TMPRSS4 (11747572_a_at) / RFU HAMP (11756126_x_at) / Fold change /veh HAMP (11756126_x_at) / RFU RNFT2 (11725882_a_at) / Fold change /veh RNFT2 (11725882_a_at) / RFU NR4A2 (11747474_a_at) / Fold change /veh NR4A2 (11747474_a_at) / RFU ABCC12 (11746883_a_at) / Fold change /veh ABCC12 (11746883_a_at) / RFU TMEM136 (11760407_x_at) / Fold change /veh TMEM136 (11760407_x_at) / RFU CLDN22 /// WWC2 (11732394_at) / Fold change /veh CLDN22 /// WWC2 (11732394_at) / RFU HLA-DPB1 (11760878_x_at) / Fold change /veh HLA-DPB1 (11760878_x_at) / RFU SPINT1 (11716480_a_at) / Fold change /veh SPINT1 (11716480_a_at) / RFU GAP43 (11754022_s_at) / Fold change /veh GAP43 (11754022_s_at) / RFU A4GNT (11735810_at) / Fold change /veh A4GNT (11735810_at) / RFU PRB3 (11715151_x_at) / Fold change /veh PRB3 (11715151_x_at) / RFU TUBB4B (11761932_at) / Fold change /veh TUBB4B (11761932_at) / RFU CAPN14 (11732068_a_at) / Fold change /veh CAPN14 (11732068_a_at) / RFU TMCC2 (11721928_a_at) / Fold change /veh TMCC2 (11721928_a_at) / RFU IRGQ (11745062_a_at) / Fold change /veh IRGQ (11745062_a_at) / RFU FAM174B (11720279_a_at) / Fold change /veh FAM174B (11720279_a_at) / RFU TMPRSS4 (11748680_a_at) / Fold change /veh TMPRSS4 (11748680_a_at) / RFU FAM212B (11763350_a_at) / Fold change /veh FAM212B (11763350_a_at) / RFU PLEKHG5 (11743358_a_at) / Fold change /veh PLEKHG5 (11743358_a_at) / RFU ZSCAN30 (11745921_a_at) / Fold change /veh ZSCAN30 (11745921_a_at) / RFU CMKLR1 (11741424_a_at) / Fold change /veh CMKLR1 (11741424_a_at) / RFU LOC101060620 /// MAPK8IP1 (11723275_at) / Fold change /veh LOC101060620 /// MAPK8IP1 (11723275_at) / RFU SPTSSB (11747773_x_at) / Fold change /veh SPTSSB (11747773_x_at) / RFU PRSS12 (11739890_at) / Fold change /veh PRSS12 (11739890_at) / RFU BIN1 (11741810_x_at) / Fold change /veh BIN1 (11741810_x_at) / RFU WNT11 (11732464_a_at) / Fold change /veh WNT11 (11732464_a_at) / RFU C10orf10 (11716521_a_at) / Fold change /veh C10orf10 (11716521_a_at) / RFU C5orf56 (11738089_at) / Fold change /veh C5orf56 (11738089_at) / RFU CYB561 (11721691_x_at) / Fold change /veh CYB561 (11721691_x_at) / RFU ANKRD19P (11752326_a_at) / Fold change /veh ANKRD19P (11752326_a_at) / RFU OR2T12 /// OR2T33 /// OR2T8 (11738714_s_at) / Fold change /veh OR2T12 /// OR2T33 /// OR2T8 (11738714_s_at) / RFU VCAN (11748164_a_at) / Fold change /veh VCAN (11748164_a_at) / RFU JSRP1 (11732532_at) / Fold change /veh JSRP1 (11732532_at) / RFU KRTAP10-11 (11738290_x_at) / Fold change /veh KRTAP10-11 (11738290_x_at) / RFU MYO3A (11730013_a_at) / Fold change /veh MYO3A (11730013_a_at) / RFU EBF3 (11725865_a_at) / Fold change /veh EBF3 (11725865_a_at) / RFU CAMK2N1 (11719241_x_at) / Fold change /veh CAMK2N1 (11719241_x_at) / RFU C5orf56 (11738088_a_at) / Fold change /veh C5orf56 (11738088_a_at) / RFU OLFML3 (11715873_a_at) / Fold change /veh OLFML3 (11715873_a_at) / RFU LOC100653217 /// NTM (11731650_a_at) / Fold change /veh LOC100653217 /// NTM (11731650_a_at) / RFU MAPK11 (11762145_a_at) / Fold change /veh MAPK11 (11762145_a_at) / RFU FIZ1 (11724087_x_at) / Fold change /veh FIZ1 (11724087_x_at) / RFU OASL (11726364_x_at) / Fold change /veh OASL (11726364_x_at) / RFU SOX15 (11748057_x_at) / Fold change /veh SOX15 (11748057_x_at) / RFU CD79A (11719716_a_at) / Fold change /veh CD79A (11719716_a_at) / RFU HIST1H1D (11736915_at) / Fold change /veh HIST1H1D (11736915_at) / RFU CASKIN2 (11723855_a_at) / Fold change /veh CASKIN2 (11723855_a_at) / RFU LOC730098 (11760151_x_at) / Fold change /veh LOC730098 (11760151_x_at) / RFU OR4N2 (11742367_at) / Fold change /veh OR4N2 (11742367_at) / RFU PRRT2 (11749266_a_at) / Fold change /veh PRRT2 (11749266_a_at) / RFU SNX32 (11753110_a_at) / Fold change /veh SNX32 (11753110_a_at) / RFU CDHR5 (11726645_a_at) / Fold change /veh CDHR5 (11726645_a_at) / RFU RCAN1 (11760418_a_at) / Fold change /veh RCAN1 (11760418_a_at) / RFU FAM167A (11723789_a_at) / Fold change /veh FAM167A (11723789_a_at) / RFU FAM26E (11764081_at) / Fold change /veh FAM26E (11764081_at) / RFU ISYNA1 (11749810_s_at) / Fold change /veh ISYNA1 (11749810_s_at) / RFU ACY1 (11761880_at) / Fold change /veh ACY1 (11761880_at) / RFU 11764098_at / Fold change /veh 11764098_at / RFU SAMD14 (11745864_x_at) / Fold change /veh SAMD14 (11745864_x_at) / RFU NPB (11741838_a_at) / Fold change /veh NPB (11741838_a_at) / RFU TMPRSS6 (11731388_a_at) / Fold change /veh TMPRSS6 (11731388_a_at) / RFU KRTAP10-2 (11738614_at) / Fold change /veh KRTAP10-2 (11738614_at) / RFU ARHGAP8 /// PRR5-ARHGAP8 (11727945_x_at) / Fold change /veh ARHGAP8 /// PRR5-ARHGAP8 (11727945_x_at) / RFU KRTAP5-7 /// NADSYN1 (11734609_at) / Fold change /veh KRTAP5-7 /// NADSYN1 (11734609_at) / RFU RASL12 (11751679_a_at) / Fold change /veh RASL12 (11751679_a_at) / RFU CDKN2B (11736163_a_at) / Fold change /veh CDKN2B (11736163_a_at) / RFU PRF1 (11729649_at) / Fold change /veh PRF1 (11729649_at) / RFU, ZNF638 /// ZNF638-IT1 / Fold change vs veh, ZNF638 /// ZNF638-IT1 / RFU, PANK3 / Fold change vs veh, PANK3 / RFU, SH3YL1 / Fold change vs veh, SH3YL1 / RFU, ZEB2 / Fold change vs veh, ZEB2 / RFU, NRIP1 / Fold change vs veh, NRIP1 / RFU, PTTG1IP / Fold change vs veh, PTTG1IP / RFU, CAPN2 / Fold change vs veh, CAPN2 / RFU, MED14 / Fold change vs veh, MED14 / RFU, SNORA58 / Fold change vs veh, SNORA58 / RFU, C1orf63 / Fold change vs veh, C1orf63 / RFU, LRRFIP1 / Fold change vs veh, LRRFIP1 / RFU, NDUFAF7 / Fold change vs veh, NDUFAF7 / RFU, SLC12A2 / Fold change vs veh, SLC12A2 / RFU, IBTK / Fold change vs veh, IBTK / RFU, ESF1 / Fold change vs veh, ESF1 / Fold change vs veh, TMEM50B / RFU, TAOK1 / Fold change vs veh, TAOK1 / RFU, ACBD3 / Fold change vs veh, ACBD3 / RFU, TMA16 / Fold change vs veh, TMA16 / RFU, RWDD3 / Fold change vs veh, RWDD3 / RFU, BCAT1 / Fold change vs veh, BCAT1 / RFU, EDEM3 / Fold change vs veh, EDEM3 / RFU, TMEM33 / Fold change vs veh, TMEM33 / RFU, WDR75 / Fold change vs veh, WDR75 / RFU, AHCTF1 / Fold change vs veh, AHCTF1 / RFU, TFRC / Fold change vs veh, TFRC / RFU, ZDHHC17 / Fold change vs veh, ZDHHC17 / RFU, NOM1 / Fold change vs veh, NOM1 / RFU, ARL8B / Fold change vs veh, ARL8B / RFU, ZBTB11 / Fold change vs veh, ZBTB11 / RFU, TAMM41 / Fold change vs veh, TAMM41 / RFU, KIAA1704 /// LOC100996395 / Fold change vs veh, KIAA1704 /// LOC100996395 / RFU, ING1 / Fold change vs veh, ING1 / RFU, TRMT61B / Fold change vs veh, TRMT61B / RFU, FUBP3 / Fold change vs veh, FUBP3 / RFU, TP53 / Fold change vs veh, TP53 / RFU, TNKS2 / Fold change vs veh, TNKS2 / RFU, ZFP14 / Fold change vs veh, ZFP14 / RFU, ACTR2 / Fold change vs veh, ACTR2 / RFU, PPP3R1 / Fold change vs veh, PPP3R1 / RFU, PIK3R1 / Fold change vs veh, PIK3R1 / RFU, HNRNPA1 / Fold change vs veh, HNRNPA1 / RFU, RNF170 / Fold change vs veh, RNF170 / RFU, ZNF28 / Fold change vs veh, ZNF28 / RFU, RNGTT / Fold change vs veh, RNGTT / RFU, OGT / Fold change vs veh, OGT / RFU, BRD1 / Fold change vs veh, BRD1 / RFU, MARS / Fold change vs veh, MARS / RFU, ZNF655 / Fold change vs veh, ZNF655 / RFU, FAHD1 / Fold change vs veh, FAHD1 / RFU, BDP1 / Fold change vs veh, BDP1 / RFU, LRRCC1 / Fold change vs veh, LRRCC1 / RFU, ARID1A / Fold change vs veh, ARID1A / RFU, ZNF146 / Fold change vs veh, ZNF146 / RFU, ZNF330 / Fold change vs veh, ZNF330 / RFU, GPN3 / Fold change vs veh, GPN3 / RFU, C9orf123 / Fold change vs veh, C9orf123 / RFU, N4BP2L2 / Fold change vs veh, N4BP2L2 / RFU, ARFIP1 / Fold change vs veh, ARFIP1 / RFU, FAM179B / Fold change vs veh, FAM179B / RFU, BCL10 / Fold change vs veh, BCL10 / RFU, UHRF1BP1L / Fold change vs veh, UHRF1BP1L / RFU, BET1 / Fold change vs veh, BET1 / RFU, CNOT2 / Fold change vs veh, CNOT2 / RFU, ZNF268 / Fold change vs veh, ZNF268 / Fold change vs veh, ZNF507 / RFU, DGCR2 / Fold change vs veh, DGCR2 / RFU, WDSUB1 / Fold change vs veh, WDSUB1 / Fold change vs veh, HSP90B1 /// MIR3652 / RFU, ADSS / Fold change vs veh, ADSS / RFU, GK / Fold change vs veh, GK / RFU, ZNF148 / Fold change vs veh, ZNF148 / RFU, TAF9 / Fold change vs veh, TAF9 / RFU, SLC1A5 / Fold change vs veh, SLC1A5 / RFU, SLMO2 / Fold change vs veh, SLMO2 / RFU, ABCC4 / Fold change vs veh, ABCC4 / RFU, LOC101060439 /// RAP1B / Fold change vs veh, LOC101060439 /// RAP1B / RFU, RFX7 / Fold change vs veh, RFX7 / RFU, GTPBP10 / Fold change vs veh, GTPBP10 / RFU, CNEP1R1 / Fold change vs veh, CNEP1R1 / RFU, BIVM-ERCC5 /// ERCC5 / Fold change vs veh, BIVM-ERCC5 /// ERCC5 / RFU, ILF3 / Fold change vs veh, ILF3 / RFU 11762660_at / Fold change /veh 11762660_at / RFU VCAN (11757783_s_at) / Fold change /veh VCAN (11757783_s_at) / RFU DDX43 (11728927_at) / Fold change /veh DDX43 (11728927_at) / RFU KRT8 (11758188_x_at) / Fold change /veh KRT8 (11758188_x_at) / RFU NKD1 (11759106_at) / Fold change /veh NKD1 (11759106_at) / RFU SRD5A1 (11742802_a_at) / Fold change /veh SRD5A1 (11742802_a_at) / RFU TPSAB1 /// TPSB2 (11721975_s_at) / Fold change /veh TPSAB1 /// TPSB2 (11721975_s_at) / RFU GSTM3 (11746129_a_at) / Fold change /veh GSTM3 (11746129_a_at) / RFU IL23R (11737362_x_at) / Fold change /veh IL23R (11737362_x_at) / RFU TMEM51 (11727254_a_at) / Fold change /veh TMEM51 (11727254_a_at) / RFU PIWIL2 (11732686_x_at) / Fold change /veh PIWIL2 (11732686_x_at) / RFU ORM1 (11744905_x_at) / Fold change /veh ORM1 (11744905_x_at) / RFU CCDC152 (11743942_at) / Fold change /veh CCDC152 (11743942_at) / RFU ECM1 (11717891_a_at) / Fold change /veh ECM1 (11717891_a_at) / RFU IL23R (11748794_a_at) / Fold change /veh IL23R (11748794_a_at) / RFU TNFAIP8L3 (11732012_x_at) / Fold change /veh TNFAIP8L3 (11732012_x_at) / RFU MBOAT4 (11741988_at) / Fold change /veh MBOAT4 (11741988_at) / RFU 11764193_at / Fold change /veh 11764193_at / RFU TMEM53 (11763286_at) / Fold change /veh TMEM53 (11763286_at) / RFU MAGEB2 (11727129_at) / Fold change /veh MAGEB2 (11727129_at) / RFU TMEM200A (11744735_a_at) / Fold change /veh TMEM200A (11744735_a_at) / RFU CCDC152 (11751479_a_at) / Fold change /veh CCDC152 (11751479_a_at) / RFU FAM211A (11726209_a_at) / Fold change /veh FAM211A (11726209_a_at) / RFU RGS16 (11746705_a_at) / Fold change /veh RGS16 (11746705_a_at) / RFU VCAN (11755009_s_at) / Fold change /veh VCAN (11755009_s_at) / RFU RHOB (11743442_s_at) / Fold change /veh RHOB (11743442_s_at) / RFU RGS16 (11720943_a_at) / Fold change /veh RGS16 (11720943_a_at) / RFU RGS16 (11720944_at) / Fold change /veh RGS16 (11720944_at) / RFU, VPS4B / Fold change vs veh, VPS4B / RFU, CREB1 / Fold change vs veh, CREB1 / RFU, DNAJC13 / Fold change vs veh, DNAJC13 / RFU, GNAQ / Fold change vs veh, GNAQ / RFU, CDK5R1 / Fold change vs veh, CDK5R1 / RFU, ZRANB3 / Fold change vs veh, ZRANB3 / RFU, CUL4A / Fold change vs veh, CUL4A / RFU, CCNY / Fold change vs veh, CCNY / RFU, UFL1 / Fold change vs veh, UFL1 / RFU, COG3 / Fold change vs veh, COG3 / RFU, DIAPH2 / Fold change vs veh, DIAPH2 / RFU, SKA2 / Fold change vs veh, SKA2 / RFU, AFF3 / Fold change vs veh, AFF3 / RFU, LMF1 / Fold change vs veh, LMF1 / RFU, IPO11 / Fold change vs veh, IPO11 / RFU, DFFB / Fold change vs veh, DFFB / RFU, FOXP1 / Fold change vs veh, FOXP1 / RFU, CARD8 / Fold change vs veh, CARD8 / RFU, STRN3 / Fold change vs veh, STRN3 / RFU, ADK / Fold change vs veh, ADK / RFU, RASSF2 / Fold change vs veh, RASSF2 / RFU, WIPF1 / Fold change vs veh, WIPF1 / RFU, LARP1B / Fold change vs veh, LARP1B / RFU, RASA1 / Fold change vs veh, RASA1 / RFU, RB1 / Fold change vs veh, RB1 / RFU, PPFIA1 / Fold change vs veh, PPFIA1 / RFU, MAT2A / Fold change vs veh, MAT2A / RFU, CCT5 / Fold change vs veh, CCT5 / RFU, WDR92 / Fold change vs veh, WDR92 / RFU, CUX1 / Fold change vs veh, CUX1 / RFU, TTC7A / Fold change vs veh, TTC7A / RFU, TMEM135 / Fold change vs veh, TMEM135 / RFU, DEPTOR / Fold change vs veh, DEPTOR / RFU, CPM / Fold change vs veh, CPM / RFU, DNAJB6 / Fold change vs veh, DNAJB6 / RFU, CACNA2D3 / Fold change vs veh, CACNA2D3 / RFU, DTX4 / Fold change vs veh, DTX4 / RFU, TFCP2 / Fold change vs veh, TFCP2 / RFU, GMCL1 /// GMCL1P1 / Fold change vs veh, GMCL1 /// GMCL1P1 / RFU, AEBP2 / Fold change vs veh, AEBP2 / RFU, SNHG1 /// SNORD22 /// SNORD25 /// SNORD26 /// SNORD27 /// SNORD28 /// SNORD29 /// SNORD31 / Fold change vs veh, SNHG1 /// SNORD22 /// SNORD25 /// SNORD26 /// SNORD27 /// SNORD28 /// SNORD29 /// SNORD31 / Fold change (Aza/veh), C12orf56 (ProbeSet 11735607_a_at) / Fold change (ACY-1035/veh), C12orf56 (ProbeSet 11735607_a_at) / Fold change (Aza/veh), FGFR1OP (ProbeSet 11751329_s_at) / Fold change (ACY-1035/veh), FGFR1OP (ProbeSet 11751329_s_at) / Fold change (Aza/veh), VPS36 (ProbeSet 11739960_a_at) / Fold change (ACY-1035/veh), VPS36 (ProbeSet 11739960_a_at) / RFU SYPL1 (11715823_x_at) / Fold change /veh SYPL1 (11715823_x_at) / RFU IGFBP7 (11715501_s_at) / Fold change /veh IGFBP7 (11715501_s_at) / RFU REEP3 (11722064_at) / Fold change /veh REEP3 (11722064_at) / RFU IGLL1 (11728026_x_at) / Fold change /veh IGLL1 (11728026_x_at): dose or concentration left out as unconfirmed. The conditions noted are these: MV-4-11 cells, 48 hours.

For `Nc1ncn([C@@H]2O[C@H](CO)[C@@H](O)[C@H]2O)c(=O)n1` [azacitidine], the “RFU ABCC12 (11746883_a_at)” value was determined as 6.52 RFU.

The record behind these values is PMC5218480 (PLoS ONE, 2017).
